The text below walks through data of publication PMC7075836 (European Journal of Nuclear Medicine and Molecular Imaging, 2020).

Structures are written as SMILES.

For one test, the target named is T1, α8β1 (Homo sapiens, UniProt P05556+P53708).
T1 construct: incubating a small molecule RGD-mimetic-tritiated radioligand with soluble integrin protein
The experiment in a line: biochemical. The following applies: read-out: inhibition of binding.

The target in a further test is T2, α5β1 (Homo sapiens, UniProt P05556+P08648).
T2 construct: incubating a small molecule RGD-mimetic-tritiated radioligand with soluble integrin protein
T2 sequence (P08648 42-995 limits assumed): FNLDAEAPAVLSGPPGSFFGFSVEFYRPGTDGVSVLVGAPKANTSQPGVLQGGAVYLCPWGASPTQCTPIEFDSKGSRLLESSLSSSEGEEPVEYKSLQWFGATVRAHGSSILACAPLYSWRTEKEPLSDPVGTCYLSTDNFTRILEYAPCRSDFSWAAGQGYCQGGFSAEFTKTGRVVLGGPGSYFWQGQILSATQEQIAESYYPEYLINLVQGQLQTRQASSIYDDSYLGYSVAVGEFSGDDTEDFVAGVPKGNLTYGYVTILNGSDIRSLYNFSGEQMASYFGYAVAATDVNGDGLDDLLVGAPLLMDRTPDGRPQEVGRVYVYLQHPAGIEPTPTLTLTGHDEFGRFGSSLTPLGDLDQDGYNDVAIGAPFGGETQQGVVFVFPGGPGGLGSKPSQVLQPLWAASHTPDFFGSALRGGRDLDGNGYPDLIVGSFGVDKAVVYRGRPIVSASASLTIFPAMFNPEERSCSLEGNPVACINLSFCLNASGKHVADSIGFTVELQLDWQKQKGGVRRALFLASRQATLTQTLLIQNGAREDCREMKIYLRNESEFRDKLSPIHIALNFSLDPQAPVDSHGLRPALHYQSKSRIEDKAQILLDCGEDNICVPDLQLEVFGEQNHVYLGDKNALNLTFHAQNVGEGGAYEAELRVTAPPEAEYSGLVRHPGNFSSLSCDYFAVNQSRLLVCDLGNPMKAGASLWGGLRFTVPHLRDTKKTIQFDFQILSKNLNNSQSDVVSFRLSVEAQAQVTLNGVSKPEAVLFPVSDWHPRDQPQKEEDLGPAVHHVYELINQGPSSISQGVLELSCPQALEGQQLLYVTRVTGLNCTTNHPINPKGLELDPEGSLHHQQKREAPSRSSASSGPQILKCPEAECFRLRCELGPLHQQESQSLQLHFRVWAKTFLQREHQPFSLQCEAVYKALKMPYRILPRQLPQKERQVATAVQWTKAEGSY
T2 sequence (P05556 21-728 limits assumed): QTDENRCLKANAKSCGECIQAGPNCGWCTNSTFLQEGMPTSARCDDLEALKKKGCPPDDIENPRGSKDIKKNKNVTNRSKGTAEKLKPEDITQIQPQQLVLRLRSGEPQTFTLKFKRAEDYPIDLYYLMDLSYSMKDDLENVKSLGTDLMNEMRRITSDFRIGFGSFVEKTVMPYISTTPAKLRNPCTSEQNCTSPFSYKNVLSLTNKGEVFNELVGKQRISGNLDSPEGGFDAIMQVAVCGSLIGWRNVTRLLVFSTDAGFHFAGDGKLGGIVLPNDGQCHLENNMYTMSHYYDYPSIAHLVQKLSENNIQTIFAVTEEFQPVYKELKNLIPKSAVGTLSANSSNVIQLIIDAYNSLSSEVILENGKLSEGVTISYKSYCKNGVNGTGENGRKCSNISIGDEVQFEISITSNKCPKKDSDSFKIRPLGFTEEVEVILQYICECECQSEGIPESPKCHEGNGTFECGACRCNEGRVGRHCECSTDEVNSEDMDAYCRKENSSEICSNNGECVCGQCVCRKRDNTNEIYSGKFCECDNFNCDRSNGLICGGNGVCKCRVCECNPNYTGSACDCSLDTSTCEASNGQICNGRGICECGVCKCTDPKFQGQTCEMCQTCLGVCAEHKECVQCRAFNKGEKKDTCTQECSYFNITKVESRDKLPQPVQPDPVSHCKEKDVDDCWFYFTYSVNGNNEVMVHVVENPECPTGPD
The experiment in a line: biochemical. The following applies: read-out: inhibition of binding.

T1 sequence (P53708 39-1012 limits assumed): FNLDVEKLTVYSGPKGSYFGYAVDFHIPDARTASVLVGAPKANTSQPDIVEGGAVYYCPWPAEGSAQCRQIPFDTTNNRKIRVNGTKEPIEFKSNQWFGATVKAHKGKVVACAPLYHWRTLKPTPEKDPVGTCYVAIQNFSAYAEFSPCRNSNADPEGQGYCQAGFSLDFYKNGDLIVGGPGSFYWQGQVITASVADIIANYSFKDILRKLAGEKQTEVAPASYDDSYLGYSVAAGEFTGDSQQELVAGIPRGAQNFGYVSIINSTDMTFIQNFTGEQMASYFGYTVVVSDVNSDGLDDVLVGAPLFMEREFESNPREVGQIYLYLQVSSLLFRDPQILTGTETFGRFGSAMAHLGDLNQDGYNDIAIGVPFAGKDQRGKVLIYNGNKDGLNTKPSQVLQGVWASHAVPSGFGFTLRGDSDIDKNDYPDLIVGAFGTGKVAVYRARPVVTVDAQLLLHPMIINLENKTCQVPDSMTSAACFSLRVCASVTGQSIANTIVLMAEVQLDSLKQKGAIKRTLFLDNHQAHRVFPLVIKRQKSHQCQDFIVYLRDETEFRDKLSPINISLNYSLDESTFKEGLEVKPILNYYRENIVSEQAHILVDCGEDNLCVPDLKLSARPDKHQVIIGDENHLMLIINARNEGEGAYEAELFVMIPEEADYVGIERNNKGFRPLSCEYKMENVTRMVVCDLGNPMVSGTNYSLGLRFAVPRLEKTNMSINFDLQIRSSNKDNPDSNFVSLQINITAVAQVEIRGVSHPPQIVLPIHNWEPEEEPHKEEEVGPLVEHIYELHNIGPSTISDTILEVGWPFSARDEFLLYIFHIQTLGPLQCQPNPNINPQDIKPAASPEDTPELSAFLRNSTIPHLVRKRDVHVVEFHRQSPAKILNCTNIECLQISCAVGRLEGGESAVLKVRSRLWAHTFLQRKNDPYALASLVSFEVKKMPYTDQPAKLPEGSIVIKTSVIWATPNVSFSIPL
T1 sequence (P05556 21-728 limits assumed): as the sequence (P05556 21-728 limits assumed) above

The term inhibition denotes the change of the read-out against control, counted positive when it falls. With `CC(C)C[C@H](NC(=O)[C@H](CC(=O)O)NC(=O)CNC(=O)[C@H](CCCNC(=N)N)NC(=O)[C@H](CC(C)C)NC(=O)[C@H](CC(N)=O)NC(=O)[C@@H]1CCCN1C(=O)[C@@H](NC(=O)[C@H](C)NC(=O)[C@@H](N)CC(N)=O)C(C)C)C(=O)N[C@@H](CCC(N)=O)C(=O)N[C@H](C(=O)N[C@@H](CC(C)C)C(=O)N[C@@H](C)C(=O)N[C@@H](CCC(N)=O)C(=O)N[C@@H](CCCCN)C(=O)N[C@H](C(=O)N[C@@H](C)C(=O)N[C@@H](CCCNC(=N)N)C(=O)N[C@H](C(N)=O)[C@@H](C)O)C(C)C)C(C)C` [A20FMDV2], the inhibition at 1 µM at α8β1 and on α5β1 was below 50% in each case.
